Entries after “also recorded” stand apart in the source; their conditions may differ. Counter-ions that a name gives are not always drawn.
Tests used:
PPC-1 cells = experiment: Apoptosis of PPC-1 cells transfected with CrmA or Bcl-XL, treated with CH-11 and compound; type: cell-based, human; settings: for protection by Bcl-XL against apoptosis: PPC-1 cells transfected with Bcl-XL; for protection by CrmA against apoptosis induced by CH-11 plus compound: PPC-1 cells transfected with CrmA
Procedure: FIG. 6. Characterization of the mechanism of FAS-sensitizing compounds. (A) PPC-1 cells (1×10^5) were seeded in 24 well plates. The next day, cells were treated with CH-11 antibody (100 ng/mL) and 30 μM 6094911, 5809354, or 5569100 with (square) or without (diamond) caspase inhibitor z-VAD-fmk (100 μM). Apoptosis was measured 24 hours later by Annexin V staining, expressing data as percentage of Annexin V-negative (“viable”) cells (mean+SD) (n=3). (B) PPC-1 cells (2×10^5) were seeded in 6 well plates and co-transfected with plasmids encoding Bcl-XL, Crm A, or empty vector along with a green fluorescent protein (GFP) encoding plasmid to identify successfully transfected cells. After 48 hours, cells were treated with CH-11 antibody (100 ng/mL) and 6094911 (30 μM), 5809354 (30 μM), or 5569100 (15 μM). As a positive control, transfected cells were treated with staurosporine (0.5 μM) (STS). Apoptotic cells were identified by morphological assessment of the GFP-positive cells, and data were expressed as the percentage of nonapoptotic (“viable”) cells (mean+SD) (n=3).
Cell transfections. PPC-1 cells (2×10^5) were seeded in 35 mm diameter plates in RPMI with 10% FCS. The next day the cells were co-transfected using Lipofectamine Plus (Invitrogen, Carlsbad, Calif.) with 0.5 μg GFP-encoding plasmid pEGFP (Invitrogen) in combination with 1.5 μg of plasmids encoding Bcl-XL, the viral caspase-8 inhibitor Crm A, or empty vector. At 2 days post-transfection, cells were incubated with various concentrations of CH-11 antibody and the test compounds for 24 hours, then the percentage apoptosis was scored by UV-microscopic analysis of the GFP-positive cells, counting a minimum of 200 cells. Cells that had rounded up and were floating in the medium were counted as non-viable, while cells that remained adherent to the plate with normal morphological features were counted as viable.
To further address the specificity of the compounds for the extrinsic pathway, the effects of selective apoptosis inhibitory genes were examined. For these experiments, PPC-1 cells were transfected with plasmids encoding CrmA, a viral protein that blocks the extrinsic pathway by inhibiting caspase-8 (Zhou et al., 1997) or encoding Bcl-xL, a mitochondria-targeting protein that blocks the intrinsic pathway by inhibiting release of cytochrome c (Boise et al., 1993; Kharbanda et al., 1997). After transfection, cells were treated with CH-11 antibody and compounds 6094911, 5809354, or […] scoring the percentage of apoptotic cells among the successfully transfected cells as determined by co-transfection of a GFP-marker plasmid.

FLIP = FLIP protein levels by SDS-PAGE/immunoblotting; type: cell-based, human
Procedure: FIG. 7. Effect of FAS-sensitizing compounds on levels of FLIP protein and DISC activation. (A) PPC-1 cells (2×10^5) were seeded into 35 mm plates and treated the next day with various FAS-sensitizing compounds (30 μM), with (+) or without (−) CH-11 antibody (100 ng/mL). As a positive control, cells were treated with CDDO (5 μM). Cell lysates were prepared 24 hours later, normalized for total protein content, and analyzed by SDS-PAGE/immunoblotting using antibodies specific for FLIP or a-tubulin. (B) PPC-1, OVCAR-3, T47D, MDA-MB-468 and DU 145 cells (2×10^5) were seeded into 35 mm plates and treated the next day with 5809354 (40 μM). Cell lysates were prepared 24 hours after treatment, normalized for total protein and analyzed by SDS-PAGE/immunoblotting using antibodies specific for FLIP or β-actin. (C) PPC-1, OVCAR-3, T47D, and DU 145 cells (2×10^5) were seeded into 35 mm plates and treated the next day with 5809354 (40 μM) (black bars) or buffer control (white bars). mRNA was extracted 24 hours after treatment. Levels of the long isoform of FLIP and GAPDH were detected by quantitative RT-PCR. Levels of FLIP were normalized for GAPDH expression and expressed as a mean fold change+SD over buffer treated cells. (D) PPC-1 cells (2×10^5) were seeded into 35 mm plates and treated the next day with various FAS-sensitizing compounds (30 μM) with (+) or without (−) CH-11 (100 ng/mL). Cell lysates were prepared 24 hours after treatment, normalized for total protein, and analyzed by SDS-PAGE/immunoblotting using antibodies specific for caspase-8 and β-actin.
FIG. 13. Small molecule down-regulation of FLIP sensitizes prostate cancer cells to anoikis. (A) PPC-1 cells were seeded overnight in adherent conditions and then treated with increasing concentrations of 5809354 for 16 hours. After incubation, cells were harvested. Total cellular RNA was extracted and mRNA levels of the long isoform of FLIP (FLIPL), the short isoform of FLIP (FLIPS), or rRNA levels of 18S were detected by real-time RT-PCR. Data were normalized using the ΔΔCT method and expressed as the mean±SEM percent of […] expression relative to untreated controls. (B) PPC-1 cells were cultured and treated as in panel A. Total cellular protein was isolated and analyzed by SDS-PAGE immunoblotting using anti-FLIP and anti-Actin antibodies. (C) PPC-1 cells were seeded overnight in adherent conditions and then exposed to increasing concentrations of 5809354 in the presence or absence of Fas-activating antibody (CH-11, 100 ng/mL). Thirty hours after incubation, cell viability was determined using the MTS assay. Data represents the mean±SEM of percent of viable cells. (D) PPC-1 cells were seeded overnight in adherent or suspension conditions and then treated with increasing concentrations of 5809354 for 30 hours. After incubation, apoptosis was measured by flow cytometry to detect cell surface annexin V expression and PI. Data represents the mean±SEM of percent of viable cells. (E) Cells were harvested, fixed, stained with DAPI, and nuclear morphology analyzed by fluorescence microscopy. Arrowheads refer to fragmented nuclei indicative of apoptosis. […] Thirty hours after incubation, cells were harvested and equal volumes plated in a colony formation assay. One week later, cells were stained with methylene blue and the number of colonies counted. Data represents the mean ±SEM percent of colonies relative to untreated controls.
Immunoblot analysis. Protein extracts were obtained by washing cells with phosphate-buffered saline (PBS) [pH 7.4] and suspending the cells in lysis buffer [10 mM Tris (pH 7.4), 150 mM NaCl, 0.1% Triton X-100, 0.5% sodium deoxycholate, and 5 mM EDTA] containing protease inhibitors (Complete tablets; Roche, Indianapolis, Ind.). Immunoblot assays were performed as described in Carter et al. (2005). […]

[1] = PPC-1 cells, 30 μM, with or without CH-11, 24 hours, long isoform

Compound: CN[C@@H]1C[C@H]2O[C@@](C)([C@@H]1OC)n1c3ccccc3c3c4c(c5c6ccccc6n2c5c31)C(=O)NC4 [staurosporine, reference compound]
- protection by Bcl-XL against apoptosis (PPC-1 cells): Bcl-XL but not Crm A protected

Compound: CC(=O)CC(=O)Nc1ccc(Cl)c(C(F)(F)F)c1 [compound 6094911, N-[4-chloro-3-(trifluoromethyl)phenyl]-3-oxobutanamide]
- protection by Bcl-XL against apoptosis (PPC-1 cells): no protective effect
- protection by CrmA against apoptosis induced by CH-11 plus compound (PPC-1 cells): almost completely protected
- levels of FLIP protein (FLIP; [1]): did not alter levels of FLIP protein

Compound: CCn1c(=N)n(CC(=O)c2cc(C(C)(C)C)c(O)c(C(C)(C)C)c2)c2ccccc21 [compound 5569100, 1-(3,5-di-tert-butyl-4-hydroxyphenyl)-2-(3-ethyl-2-imino-2,3-dihydro-1H-benzo[d]imidazol-1-yl)ethanone hydrobromide]
- protection by Bcl-XL against apoptosis (PPC-1 cells): no protective effect
- protection by CrmA against apoptosis induced by CH-11 plus compound (PPC-1 cells): almost completely protected
- levels of FLIP protein (FLIP; PPC-1 cells, 30 μM, with or without CH-11, 24 hours, long isoform, hydrobromide): decreased levels of FLIP protein; also recorded: reduced FLIP expression

Compound: 4-(4-chloro-2-methylphenoxy)-N-hydroxybutanamide [compound 5809354]
- protection by Bcl-XL against apoptosis (PPC-1 cells): no protective effect
- protection by CrmA against apoptosis induced by CH-11 plus compound (PPC-1 cells): almost completely protected
- FLIP protein expression (FLIP; Example 2, PPC-1 cells, increasing concentrations, 16 hours): concentration-dependent decrease
- levels of FLIP protein (FLIP; [1]): decreased levels of FLIP protein
- levels of FLIP protein (FLIP; non-responding cell lines DU145 and MDA-MB-468, 40 μM, 24 hours): levels of FLIP were decreased
